The numbers were not newly measured in patent publication US20210139999A1, “PROGNOSTIC AND TREATMENT RESPONSE PREDICTIVE METHOD” (Cancer Research Technology Limited, priority 2018, published 2021), which cites them from elsewhere.

This data set has as its system renal cancer. Conditions: 81 patients with response data, single agent arm.

Take Atezolizumab: the responders was 25%.
